Source: patent US20120053235A1, “Dihydromyricetin as an IKK-beta inhibitor used for treatment of arthritis, cancer and autoimmune conditions, and other diseases or disorders” (HONG KONG BAPTIST UNIVERSITY, priority 2010, published 2012)

Legend:
[1] = system: collagen II induced arthritis in female Wistar rats; assay: Collagen II induced arthritis (CIA); format: in vivo
Experimental: Collagen II solution (collagen, 2 mg/ml in 0.05M acetic acid, Chondrex 20022, Redmond, Wash., USA) was emulsified with an equal volume of incomplete Freund's adjuvant (IFA, Chondrex 7002, Redmond, Wash., USA) at 4° C. using a high-speed homogenizer. In the experiment of CIA, DMY was encapsulated with HP-CD (1:8.48) and then dissolved in the normal saline with drug concentrations of 50 and 100 mg/kg body weight. Rats were intradermally injected at the base of the tail with 100 μl collagen/incomplete Freund's adjuvant (IFA) emulsion containing […] of collagen II by the use of a glass syringe equipped with a locking hub and a 27-G needle. On day 7 after the primary immunization, all the rats were given a booster injection of 100 μg of collagen II in IFA. On the day after the onset of arthritis (day 13), the CIA rats were exposed to a daily intraperitoneal administration of DMY (50 and 100 mg/kg) until day 30 of the study. DEX (0.1 mg/kg, one per day), MTX (3.75 mg/kg, twice per week), and indomethacin (1 mg/kg, one per day) were used as positive reference drugs. The rats were inspected daily from the onset of arthritis characterized by edema and/or erythema in the paws. The incidence and severity of arthritis were evaluated using an arthritic scoring system, and bi-hind paw volumes and body weight were measured every 2 days started on the day when the arthritic signs were firstly visible (day 13). In the arthritic scoring system, lesions (i.e., the clinical arthritic signs) of the four paws of each rat were graded from 0 to 4 according to the extent of both edema and erythema of the periarticular tissues. As such, 16 was the potential maximum of the combined arthritic scores per animal. The hind paw volumes were measured using a plethysmometer chamber (7140 UGO. Basile, Comerio, Italy) and expressed as the mean volume change of both hind paws of the rats. Body weight of the rats was monitored with a 0.1 g precision balance (Sartorius AG, Goettingen, Germany). On day 30, all rats were sacrificed with liver, spleen and thymus being collected and weighted. The organ index for a specific organ is equal to the ratio of the weight of that organ to a body weight of 100 g.

[2] = system: ear edema induced by dinitrofluorobenzene in male ICR mice; assay: Delay-type hypersensitivity test (DNFB-induced ear edema); format: in vivo; conditions: DTHT mice, topical treatment
Experimental: Male mice were sensitized through topical application of 20 μl of 0.5% (v/v) dinitrofluorobenzene (DNFB) in acetone onto the shaved abdomen on days 1 and 2. Challenge was then preformed in day 6 by applying DNFB (20 μl, 0.5%, v/v) on the left inner and outer ear surfaces of mice. DMY (at doses of 0.5, 1, 2 mg/ear) and DEX (0.025 mg/ear, Sigma-Aldrich) dissolved in acetone was topically applied (20 μl) to the ears at 2nd, 24th, 48th, and 72nd hour after the challenge. The mice were sacrificed by cervical dislocation, and then the same area of the ears was punched from each animal. Spleens and thymuses were isolated and weighted. The ear edema was calculated according to the differences between the weight of the right and left ears. The control group was treated only with DNFB.

SMILES | organ indexes of spleen and/or thymus ([1]; rat, in vivo) | body weight [2] | spleen weight ([2]; FIGS. 9B and C) | thymus weight ([2]; FIGS. 9B and C) | organ indexes of spleen and/or thymus ([1]; CIA rats, day 30, FIG. 10C) | body weight ([1]; CIA rats, FIG. 100D)
C[C@@H]1C[C@H]2[C@@H]3CCC4=CC(=O)C=C[C@]4(C)[C@@]3(F)[C@@H](O)C[C@]2(C)[C@@]1(O)C(=O)CO [DEX, reference compound] | significant reduction | greatly reduced | decreased | decreased | – | –
CN(Cc1cnc2nc(N)nc(N)c2n1)c1ccc(C(=O)N[C@@H](CCC(=O)O)C(=O)O)cc1 [MTX, reference compound] | significant reduction | – | – | – | – | –
COc1ccc2c(c1)c(CC(=O)O)c(C)n2C(=O)c1ccc(Cl)cc1 [indomethacin, reference compound] | – | – | – | – | significant reduction | significant reduction in body weight
